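Five concentrations, 48 hours, 96-well plates. TGI marks complete inhibition of growth.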
Key:
Assay in all cases: NCI-60 cell line screen, 48 h
K-562 leukemia = test system: K-562 leukemia
SN12C renal = test system: SN12C renal
A549 NSCLC = test system: A549 NSCLC
M14 melanoma = test system: M14 melanoma
LOX IMVI melanoma = test system: LOX IMVI melanoma
MDA-MB-231 breast = test system: MDA-MB-231 breast
786-0 renal = test system: 786-0 renal
MOLT-4 leukemia = test system: MOLT-4 leukemia
SW-620 colon = test system: SW-620 colon
SF-295 CNS = test system: SF-295 CNS
SF-268 CNS = test system: SF-268 CNS
IGROV1 ovarian = test system: IGROV1 ovarian
CAKI-1 renal = test system: CAKI-1 renal
HCT-116 colon = test system: HCT-116 colon
HL-60(TB) leukemia = test system: HL-60(TB) leukemia
HT29 colon = test system: HT29 colon
OVCAR-4 ovarian = test system: OVCAR-4 ovarian
SK-MEL-2 melanoma = test system: SK-MEL-2 melanoma
UO-31 renal = test system: UO-31 renal
HOP-92 NSCLC = test system: HOP-92 NSCLC

Measured: TGI

Cc1nn(C(=O)Cc2ccccc2)c2c1C(c1ccc([N+](=O)[O-])cc1)SC(N)=N2 (centres undefined)
not listed: OVCAR-4 ovarian | SK-MEL-2 melanoma | UO-31 renal | HOP-92 NSCLC
> 100 µM: all other assays above

O=c1[nH]nc(CNc2ccc(Cl)cc2Cl)c2ccccc12
97 µM: SN12C renal
39.8 µM: OVCAR-4 ovarian
66.3 µM: HCT-116 colon
33.7 µM: UO-31 renal
43.2 µM: A549 NSCLC
44.7 µM: SF-295 CNS | SF-268 CNS
80.1 µM: HOP-92 NSCLC
58.7 µM: IGROV1 ovarian
51.7 µM: CAKI-1 renal
41.3 µM: 786-0 renal
not listed: MDA-MB-231 breast
> 100 µM: all other assays above

CC(C)c1cccc(C(C)C)c1NC(=O)C(=O)C1CCC2=C(Sc3ccccc3N2)C1=O (centres undefined)
32.5 µM: SW-620 colon
not listed: MDA-MB-231 breast
> 100 µM: all other assays above

C/C=C\C(CC(=O)NCCC1CN(C(=O)OCc2ccccc2)c2ccccc21)CC(=O)OC (centres undefined)
not listed: SN12C renal | LOX IMVI melanoma | HL-60(TB) leukemia
> 100 µM: all other assays above

NNC(=O)CC(=O)Nc1ccc(S(=O)(=O)c2ccc(NC(=O)CC(=O)NN)cc2)cc1
not listed: LOX IMVI melanoma
> 100 µM: all other assays above

CCOC(=O)/C(=C\c1cn(C(C)=O)c2ccccc12)P(C)(=O)OCC (centres undefined)
50.5 µM: SF-268 CNS
81.7 µM: MDA-MB-231 breast
66.8 µM: HOP-92 NSCLC
not listed: LOX IMVI melanoma | OVCAR-4 ovarian
> 100 µM: all other assays above

CC(C)(CCl)NC(=O)c1cccc(C(=O)NC(C)(C)CCl)n1
not listed: MDA-MB-231 breast
> 100 µM: all other assays above

CC12C3CC4C5CC(C(C53)[C@@H]1NCc1ccccc1)C42 (some centres undefined)
not listed: MDA-MB-231 breast
> 100 µM: all other assays above

Cc1cccc(N=Cc2ccc(N(CCC#N)S(=O)(=O)c3ccccc3)cc2C)c1
not listed: MDA-MB-231 breast
> 100 µM: all other assays above

O=C1NC(=S)NC(=O)C1=CC1CC1
not listed: MDA-MB-231 breast
> 100 µM: all other assays above

[N-]=[N+]=Nc1c(-c2ccccc2)c(=O)n(-c2ccccc2)c2ccccc12
62.3 µM: SF-268 CNS
not listed: CAKI-1 renal | SK-MEL-2 melanoma
> 100 µM: all other assays above

COC(=O)CCC(=O)c1ccc2c(c1)CC1(C2)Cc2ccc(C(=O)CCC(=O)OC)cc2C1
61 µM: SK-MEL-2 melanoma
not listed: SW-620 colon | SF-268 CNS | CAKI-1 renal
> 100 µM: all other assays above
